Laboratory results published in patent EP0537742B1, “Styrene derivatives” (Mitsubishi Chemical Corporation, priority 1991, dated 1993).
Read-outs that look alike come from different tables or passages of the source.

How the values were obtained:
SKOV3 cell line = experiment: Test on cancer cells in tissue culture (proliferation inhibition, MTT); format: cell-based; details: Homo sapiens, SK-OV-3, 72 h
Description: Effect of the test material against the proliferation of cultivated cancer cells was examined with this SKOV3 cell line as follows:
SKOV3 cell was inoculated at a rate of 1 x 10^3 cell/well on a 96 well dish, and cultivated on a DMEM: F12 (1 : 1) medium containing 10% FCS and 0.1 mg/ml kanamycin at 37°C in a stream of 5% carbon dioxide for one day. Test material dissolved in DMSO was added to the medium (final concentration of DMSO was below 0.1%), which was cultivated for 3 days under the conditions mentioned above. Test material was replaced every 24 hours together with the medium.
Counting the number of living cells was effected by making colorimetric analysis at two wave length, 550 nm and 610 nm, in reference to the assaying method as described in Michael C. Alley et al., Cancer Research, 48, 589 (1988) using MTT reagent, and the number obtained was defined as "a".
At the same time, the count of the number of living cells obtained without adding the test material was assayed, and the number obtained was defined as "b".
Cell proliferation inhibitory rate was determined according to the following equation: Inhibitory Rate (%) = (b-a)/b x 100 [formula]

[1] = biological target: T1, human EGF (epidermal cell growth factor) receptor tyrosine kinase (Homo sapiens, UniProt P00533); experiment: Tyrosine kinase activity inhibition (partially purified EGF receptor from A431 cell membrane fraction, RR-SRC peptide, 32P-ATP); format: biochemical; details: for inhibition at 10 µM: read-out: Inhibitory Rate (%) in the presence of 10 µM; for inhibition at 1 µM: read-out: Inhibitory Rate (%) in the presence of 1 µM
T1 construct: A431 cell membrane fraction, which was provided for the assay as the partially purified EGF receptor, enzyme source; endogenous in cells; host or cells: A431 (human squamous cell carcinoma), crude membrane fraction (27500 x g pellet)
T1 sequence (P00533 25-1210): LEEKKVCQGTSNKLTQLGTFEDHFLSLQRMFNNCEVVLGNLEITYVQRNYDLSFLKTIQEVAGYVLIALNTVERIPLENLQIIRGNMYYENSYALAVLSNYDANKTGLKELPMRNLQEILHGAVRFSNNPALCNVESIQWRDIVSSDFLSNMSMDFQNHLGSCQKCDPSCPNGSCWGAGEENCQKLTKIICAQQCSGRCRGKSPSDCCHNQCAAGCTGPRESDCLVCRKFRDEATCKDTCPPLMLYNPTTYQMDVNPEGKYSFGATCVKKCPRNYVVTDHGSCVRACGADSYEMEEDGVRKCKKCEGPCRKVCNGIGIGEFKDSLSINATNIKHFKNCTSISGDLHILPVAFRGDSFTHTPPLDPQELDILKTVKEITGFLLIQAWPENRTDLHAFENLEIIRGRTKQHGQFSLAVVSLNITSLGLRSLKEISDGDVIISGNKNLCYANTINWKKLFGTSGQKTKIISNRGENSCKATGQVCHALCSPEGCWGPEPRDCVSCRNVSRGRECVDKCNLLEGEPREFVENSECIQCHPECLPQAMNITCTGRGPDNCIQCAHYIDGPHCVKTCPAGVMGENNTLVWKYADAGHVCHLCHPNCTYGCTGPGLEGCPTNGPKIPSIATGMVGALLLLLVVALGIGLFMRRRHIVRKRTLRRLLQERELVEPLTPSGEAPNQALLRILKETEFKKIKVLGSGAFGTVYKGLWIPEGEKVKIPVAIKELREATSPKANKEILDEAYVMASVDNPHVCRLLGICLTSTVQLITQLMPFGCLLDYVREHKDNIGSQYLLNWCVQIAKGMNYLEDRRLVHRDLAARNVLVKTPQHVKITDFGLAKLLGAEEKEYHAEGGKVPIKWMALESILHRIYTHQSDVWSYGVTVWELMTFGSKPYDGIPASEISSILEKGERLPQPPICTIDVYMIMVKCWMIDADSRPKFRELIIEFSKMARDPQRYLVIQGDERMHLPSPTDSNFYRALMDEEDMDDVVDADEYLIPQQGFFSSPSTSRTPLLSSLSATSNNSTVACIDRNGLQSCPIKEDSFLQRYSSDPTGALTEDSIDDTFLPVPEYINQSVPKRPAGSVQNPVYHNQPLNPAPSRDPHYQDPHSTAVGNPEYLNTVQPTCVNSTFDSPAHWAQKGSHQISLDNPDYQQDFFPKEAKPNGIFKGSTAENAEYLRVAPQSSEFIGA
T1 sequence (P01133 971-1023 partner limits assumed): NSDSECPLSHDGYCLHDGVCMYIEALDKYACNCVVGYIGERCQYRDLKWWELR
Description: Detailed explanation of the assaying method will be given below.
A431 cells were cultivated in Dulbecco's modified Eagle's medium (DMEM) containing 10% fetal calf serum (FCS) at 37°C in a stream of 5% carbon dioxide, and the resultant cells were homogenized in a solution containing 10 mM N-2-hydroxyethylpiperazino-N'-2-ethanesulfonic acid (Hepes) buffer (pH 7.4), 0.25M sucrose and 0.1 mM EDTA and centrifuged at 1000 g for 5 minutes.
At that time the volume was 60 µl. The reaction was allowed to perform in ice for 30 minutes and stopped by adding 10 mg/ml bovine serum albumin (6 µl) and 20% trichloroacetic acid (25 µl). The mixture was allowed to stand in ice for 30 minutes.
Then the mixture was centrifuged at 5000 x g for 2 minutes, and the supernatant (40 µl) was sampled and adsorbed on P81 phosphocellulose paper. […] The count obtained was defined as "A". At the same time, counts of the reaction not containing the test material and the reaction not containing both the test material and EGF were assayed, and the resulted counts were defined as "B" and "C" respectively.

[2] = Toxicity test, intraperitoneal administration; format: in vivo, Mouse ddy (male)
Description: Toxicity test for the compounds of the present invention was examined in the manner as shown below. Test compound Compound No. 4 Test animal Mouse ddy (male) 16 - 20 g
Test compound was suspended in a mixture of 0.25% carboxymethyl cellulose, physiological saline, and a small amount of Tween 80 to give a test solution. This solution was administered intraperitoneally at dose of 0 mg/kg (control), 500 mg/kg and 1000 mg/kg to the test animal. Change of the body weight was measured 3 days later.

[3] = Tyrosine Kinase Activity Inhibitory Effect, test material 10 µM
[4] = Table 5: Proliferation Inhibitory Effect Against Cultivated Cells, 3 days, read-out: IC50

Row | SMILES | IC50 (SKOV3 cell line; [4]) | further results
1 | N#CC(=Cc1ccc(O)c(O)c1)C(=O)Nc1ccccc1 [Reference 1), reference compound] |  | IC50 (SKOV3 cell line): 35 µM
2 | N#CC(=Cc1ccc(O)c(O)c1)C(=O)Nc1cccc(Br)c1 [Compound No. 11, N-(3-bromophenyl)-2-cyano-3-(3,4-dihydroxyphenyl) propenamide] |  | inhibition at 10 µM [1, 3]: 77%
3 | N#CC(C(=O)Nc1ccccc1)=C(O)c1ccc(O)c(O)c1 [Compound No. 119, 2-cyano-3-hydroxy-3-(3,4-dihydroxyphenyl) propenanilide] | 24 µM | 
4 | N#CC(=Cc1cc(O)c(O)c(Cl)c1)C(=O)Nc1cccc(Cl)c1 [Compound No. 4, N-(3-chlorophenyl)-2-cyano-3-(3-chloro-4,5-dihydroxyphenyl) propenamide] | 21.6 µM | dead case ([2]; 500 mg/kg intraperitoneally): No dead case was observed; dead case ([2]; 1000 mg/kg intraperitoneally): No dead case was observed
5 | N#CC(=Cc1cc(O)c(O)c(Br)c1Br)C(=O)Nc1cccc(Cl)c1 [Compound No. 9, N-(3-chlorophenyl)-2-cyano-3-(2,3-dibromo-4,5-dihydroxyphenyl) propenamide] | 17 µM | 
6 | N#CC(=Cc1ccc(O)c(O)c1)C(=O)Nc1cccc(Cl)c1 [Compound No. 13, N-(3-chlorophenyl)-2-cyano-3-(3,4-dihydroxyphenyl) propenamide] | 30 µM | inhibition at 1 µM [1]: 46%; inhibition at 10 µM [1]: 100%
7 | N#CC(=Cc1cc(O)c(O)cc1[N+](=O)[O-])C(=O)Nc1cccc(Cl)c1 [Compound No. 16, N-(3-chlorophenyl)-2-cyano-3-(4,5-dihydroxy-2-nitrophenyl) propenamide] | 24 µM | 
8 | N#CC(=Cc1ccc(O)c(O)c1)C(=O)Nc1ccc(Cl)cc1 [Compound No. 12, N-(4-chlorophenyl)-2-cyano-3-(3,4-dihydroxyphenyl) propenamide] |  | inhibition at 10 µM [1, 3]: 52%
9 | N#CC(=Cc1ccc(O)c(O)c1)C(=O)Nc1ccc(Br)cc1 [Compound No. 10, N-(4-bromophenyl)-2-cyano-3-(3,4-dihydroxyphenyl) propenamide] |  | inhibition at 10 µM [1, 3]: 47%
10 | N#CC(=Cc1cc(O)c(O)c(Br)c1)C(=O)Nc1cccc(Cl)c1 [Compound No. 6, N-(3-chlorophenyl)-2-cyano-3-(3-bromo-4,5-dihydroxyphenyl) propenamide] | 21 µM | 
11 | CCOc1cc(C=C(C#N)C(N)=O)cc(CSc2ccccc2)c1O [Reference 2), reference compound] | 78 µM | 
12 | N#CC(=Cc1cc(Br)c(O)c(Br)c1)C(=O)Nc1cccc(Cl)c1 [compound 100] | 19 µM | 
13 | COc1cc(C=C(C#N)C(=O)Nc2ccccc2)cc(Br)c1O [compound 105] | 13 µM | 
14 | N#CC(=Cc1cc(O)c(O)c(F)c1)C(=O)Nc1cccc(Cl)c1 [Compound No. 8, N-(3-chlorophenyl)-2-cyano-3-(3-fluoro-4,5-dihydroxyphenyl) propenamide] | 23.4 µM | inhibition at 1 µM [1]: 78%
15 | COc1cc(C=C(C#N)C(=O)Nc2ccccc2)cc(Cl)c1O [Compound No. 1, 2-cyano-3-(3-chloro-4-hydroxy-5-methoxyphenyl) propeneanilide] | 17.3 µM | inhibition at 10 µM [1]: 63%
16 | N#CC(=Cc1cc(O)c(O)c(Cl)c1)C(=O)Nc1ccccc1 [Compound No. 2, 2-cyano-3-(3-chloro-4,5-dihydroxyphenyl)propenanilide] | 20.4 µM | inhibition at 10 µM [1]: 74%
17 | N#CC(=Cc1cc(O)c(O)c(C(F)(F)F)c1)C(=O)Nc1cccc(Cl)c1 [Compound No. 98, N-(3-chlorophenyl)-2-cyano-3-[3,4-dihydroxy-5-(trifluoromethyl)phenyl] propenamide] | 16 µM | 
18 | N#CC(=Cc1cc(O)c(O)c(C#N)c1)C(=O)Nc1cccc(Cl)c1 [Compound No. 15, N-(3-chlorophenyl)-2-cyano-3-(3-cyano-4,5-dihydroxyphenyl) propenamide] | 34 µM | 
19 | Cc1cc(C=C(C#N)C(=O)Nc2cccc(Cl)c2)cc(O)c1O [compound 110] | 14 µM | 
20 | Cc1cccc(NC(=O)C(C#N)=Cc2ccc(O)c(O)c2)c1 [Compound No. 14, N-(3-methylphenyl)-2-cyano-3-(3,4-dihydroxyphenyl) propenamide] |  | inhibition at 10 µM [1]: 77%
21 | O=CNC=Cc1ccc(O)c(O)c1 [Reference 3), reference compound] |  | IC50 ([1]; Table 3, tyrosine kinase inhibition): 12 µM
22 | COc1cc(C=C(C#N)C(=O)Nc2cccc(Cl)c2)cc(F)c1O [Compound No. 7, N-(3-chlorophenyl)-2-cyano-3-(3-fluoro-4-hydroxy-5-methoxyphenyl) propenamide] |  | inhibition at 1 µM [1]: 41%
